Measurements as given in article PMC10568017, “A quest for the stereo-electronic requirements for selective agonism for the neurotrophin receptors TrkA and TrkB in 17-spirocyclic-dehydroepiandrosterone derivatives” (Frontiers in Molecular Neuroscience, 2023).

Legend:
PC12 cells = experiment: CellTox assay, survival of PC12 cells under serum deprivation; format: cell-based; conditions: compound 500 nM, 24 h, after 4 h serum starvation; NGF 100 ng/mL as control (Figure 9)
TrkB = biological target: T1, TrkB (Mus musculus, UniProt P15209); experiment: TrkB phosphorylation assay in primary astrocytes (Western blot); format: cell-based; conditions: compound 1 μM, 20 min, after 6 h serum starvation, BDNF 500 ng/mL as control
T1 construct: primary cortical astrocytes from 2-day-old mice (as a natively TrkB-expressing neuronal population); endogenous in cells; host or cells: primary cortical astrocytes from C57B/6 mouse pups (P2)
T1 sequence (P15209 32-821): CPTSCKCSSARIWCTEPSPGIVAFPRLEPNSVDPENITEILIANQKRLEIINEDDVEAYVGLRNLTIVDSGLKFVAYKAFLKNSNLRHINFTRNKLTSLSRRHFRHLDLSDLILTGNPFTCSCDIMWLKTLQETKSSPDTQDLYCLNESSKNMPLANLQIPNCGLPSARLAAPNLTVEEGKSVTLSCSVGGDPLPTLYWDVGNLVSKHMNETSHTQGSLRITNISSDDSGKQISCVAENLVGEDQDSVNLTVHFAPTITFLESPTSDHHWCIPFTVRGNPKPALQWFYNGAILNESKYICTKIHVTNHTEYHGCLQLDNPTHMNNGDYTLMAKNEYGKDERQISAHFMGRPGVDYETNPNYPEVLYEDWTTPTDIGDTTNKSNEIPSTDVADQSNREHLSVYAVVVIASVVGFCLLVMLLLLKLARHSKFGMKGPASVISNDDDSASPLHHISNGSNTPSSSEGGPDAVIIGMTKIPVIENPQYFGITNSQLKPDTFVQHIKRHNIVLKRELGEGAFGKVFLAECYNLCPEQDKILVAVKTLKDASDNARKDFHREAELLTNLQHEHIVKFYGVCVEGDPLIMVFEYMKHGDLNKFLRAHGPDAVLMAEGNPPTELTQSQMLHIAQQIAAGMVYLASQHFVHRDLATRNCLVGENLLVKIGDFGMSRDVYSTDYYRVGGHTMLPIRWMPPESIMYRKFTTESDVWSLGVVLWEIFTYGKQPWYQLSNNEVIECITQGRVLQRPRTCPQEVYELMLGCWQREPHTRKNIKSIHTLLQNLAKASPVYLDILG
Experimental: We tested compounds on three cellular systems, primary cortical astrocytes from 2-day-old mice (as a natively TrkB-expressing neuronal population), and NIH-3T3 fibroblasts stable transfected with TrkB and NIH-3T3 naïve cells. Cells were grown with high-glucose DMEM medium supplemented with 10% fetal bovine serum (FBS), 100 μg/mL streptomycin, and 100 units/mL penicillin at 37°C in a humidified 5% CO2 atmosphere. Phosphorylation results presented here are in primary astrocytes, and cell toxicity assay results are in NIH-3T3 stable transfected cells with TrkB.
Cells were plated in 12 well plates, at a density of 100,000 cells per well, with 6 h of serum deprivation carried out on the following day. To assess the effect of compounds on TrkB phosphorylation, 20-min treatments were applied, using either BDNF at 500 ng/mL (Peprotech 450-02) (positive control) or compounds at 1 μM.
Cell lysis for 10 min was carried out on ice using the Pierce IP Lysis Buffer by Thermo Scientific and a phospho-protease inhibitor cocktail by Millipore. After adding loading buffer (5 × Laemni), 25 μg from each protein sample were incubated for 5 min at 95°C and subjected to SDS-PAGE. Proteins were transferred to a nitrocellulose membrane at 350 mA for 2 h. Membrane blocking was performed using 5% bovine serum albumin (BSA) at room temperature for 1 h, before adding the primary antibodies to the blocking solution at 4°C overnight. HRP-conjugated secondary antibodies were used for the detection of chemiluminescence with ECL solution. Primary antibodies: Phospho-TrkB (Tyr816) Millipore # ABN1381, and Anti-TrkB Abcam #ab33655.
Mixed glial cultures were isolated from the cortex of C57B/6 pups at post-natal day 2 (P2). Cells were plated in a medium containing high-glucose DMEM, 200 U/mL penicillin, 200 μg/mL streptomycin, and 10% fetal bovine serum (FBS). When cells reach 100% confluency (7–8 days), the anti-mitotic agent Ara-C was added in the media at a final concentration of 10 μM, for 3 to 4 days to target the highly proliferative microglial cells. Ara-C was removed, and primary astrocytes (97% purity) were cultured at 5% CO2 and 37°C.
Cells were plated at 70–80% confluency. The next day, they were deprived of serum for 6 h and subsequently treated with 500 ng/mL BDNF or 1 μM of compounds for 20 min. Cells were then lysed in Pierce™ IP Lysis Buffer (87788, Thermo Fischer Scientific, Rockford, USA), containing proteases (539138, Calbiochem, Darmstadt, Germany), and phosphatase inhibitors (524629, Calbiochem, Darmstadt, Germany). Lysates were then suspended in an SDS loading buffer and subjected to Western blot against phosphorylated TrkB (1:1,000, ABN1381, Sigma-Aldrich, St. Louis, MO, USA) and total TrkB (1:1,000, 07-225-I, Sigma-Aldrich, St. Louis, MO, USA).

## C[C@]12CC[C@H](O)CC1=CC[C@@H]1[C@@H]2CC[C@@]2(C)[C@H]1CC[C@@]21CC=C(Cn2cc(Cc3ccccc3)nn2)CO1 [ENT-A055, (3S,17R)-5′-[(4-benzyl-1H-1,2,3-triazol-1-yl)methyl]-3′,6′-dihydrospiro[5-androstene-17,2′-pyran]-3-ol]
PC12 cells
  protection of PC12 cells from serum deprivation-induced cell death (CellTox): without showing any antiapoptotic activity in PC12 cells
TrkB
  phosphorylation levels of the TrkB receptor: successfully increased phosphorylation levels of the TrkB receptor compared to the untreated control
